Here are results for 13 compounds from patent US9758485B2, “Compounds for controlling arthropods” (priority 2013, dated 2017).

Data set [1] can be described thus: logP determination by HPLC on a reversed-phase column (C18), EEC Directive 79/831 Annex V.A8. It counts as physicochemical. The following applies: for log P: HPLC-MS, reversed-phase column (C18).
Another data set relates to Phaedon cochleariae. The experiment in a line: Phaedon cochleariae - spray test. It counts as in vivo. The following applies: application rate 100 g/ha, larvae on Chinese cabbage leaf discs, after 7 days. On the procedure:
Phaedon cochleariae—Spray Test
Solvent: 78.0 parts by weight of acetone and 1.5 parts by weight of dimethylformamide
Emulsifier: alkylaryl polyglycol ether
To produce an appropriate active ingredient formulation, 1 part by weight of active ingredient is dissolved using the specified parts by weight of solvent and made up with water containing an emulsifier concentration of 1000 ppm until the desired concentration is attained. To produce further test concentrations, the preparation is diluted with emulsifier-containing water.
Discs of Chinese cabbage leaves (Brassica pekinensis) are sprayed with an active ingredient formulation of the desired concentration and, after drying, populated with larvae of the mustard beetle (Phaedon cochleariae).
After 7 days, efficacy in % is determined. 100% means that all the beetle larvae have been killed; 0% means that no beetle larvae have been killed.

The test system of another data set is Lucilia cuprina. As to the kind of experiment: Lucilia cuprina test. It counts as in vivo. The conditions noted are these: application rate 100 ppm; L1 larvae in minced horsemeat; kill after 2 days. Put shortly:
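Mortality (%) of first-instar blowfly larvae, about 20 per vessel, recorded 2 days after exposure to compound-treated minced horsemeat. Compound dissolved in dimethyl sulphoxide, then water-diluted to the desired concentration.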

The subject of the next data set is Amblyomma hebraeum. The experiment in a line: Amblyomma hebraeum test (tick nymphs, immersion). In kind it is in vivo. The conditions noted are these: application rate 100 ppm; tick nymphs immersed for one minute; kill after 42 days. Put shortly: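 Mortality (%) is read 42 days post-treatment, where 0% means no ticks and 100% all ticks killed. Nymphs were dipped for 1 min into the test dilution (DMSO stock diluted with water) and afterwards stored on filter paper under controlled climate.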

A further data set has as its system Rhipicephalus sanguineus. As to the kind of experiment: Rhipicephalus sanguineus - in vitro contact tests with adult brown dog ticks. In kind it is in vivo. In a few lines:
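Test compound was dissolved in acetone p.a. (9 mg in 1 ml, then diluted), and 250 μl were spread evenly over the inner surface of 25 ml test tubes on an orbital shaker at 30 rpm for 2 h. Once the solvent evaporated, 5-10 adult Rhipicephalus sanguineus ticks were sealed in, kept dark at room temperature, and after 48 h placed on a 45-50° C. hotplate to score dead or moribund ticks.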

The subject of data set [2] is Boophilus microplus Parkhurst strain, SP-resistant. As to the kind of experiment: Boophilus microplus - dip test. The conditions noted are these: application rate 100 ppm; dip of engorged adult female ticks; laying of fertile eggs, after 7 days. It counts as in vivo. Put shortly: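 Efficacy reflects suppression of fertile egg laying: 0% means all eggs fertile, 100% none, read at 7 days, doubtful eggs kept ~42 days for larval hatch. Treatment was a complete dip of 8–10 engorged adult female ticks (SP-resistant Parkhurst strain) in a water dilution of a DMSO stock.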

In a further data set the test system is Boophilus microplus. The experiment in a line: Boophilus microplus - injection test. It counts as in vivo. The following applies: application rate 20 μg/animal; injected into engorged adult female ticks; laying of fertile eggs, after 7 days. In a few lines: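 Compound dissolved in DMSO (10 mg per 0.5 ml, then diluted with DMSO to test concentration); 1 μl injected into the abdomen of 5 engorged adult female ticks, which are then held in a climate-controlled room. Efficacy judged after 7 days by laying of fertile eggs.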

The test system of data set [3] is Ctenocephalides felis. The experiment in a line: Ctenocephalides felis - in vitro contact tests with adult cat fleas. In kind it is in vivo. The conditions noted are these: application rate 5 μg/cm^2 (=500 g/ha), after 48 h (dead or moribund). Put shortly:
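Efficacy, as share of dead or moribund adult Ctenocephalides felis, read 48 h after placing 5-10 fleas in tubes coated by acetone solution (5 μg/cm^2 at 900 ppm). Incubation horizontal at room temperature, ambient humidity; immobile or uncoordinated fleas scored.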

Data set [4] relates to Ctenocephalides felis. As to the kind of experiment: Ctenocephalides felis - oral test. In kind it is in vivo. The following applies: application rate 100 ppm in citrated cattle blood; adult fleas; kill after 2 days. Put shortly: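 DMSO stock, diluted in citrated cattle blood; ~20 unfed adult fleas feed through parafilm; % kill read at day 2 (0% = none killed).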
For a further data set, the system named is Musca domestica. The experiment in a line: Musca domestica test. In kind it is in vivo. The conditions noted are these: application rate 100 ppm; adult houseflies; kill after 2 days. In a few lines:
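10 adult flies per vessel; sugar-solution sponge dosed with active ingredient formulation (DMSO concentrate diluted in water to desired concentration). Read-out: % kill at 2 days.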

Setting [5] is: application rate 5 μg/cm^2, after 48 h (dead or moribund).
[6] abbreviates: application rate 1 μg/cm^2, after 48 h (dead or moribund).

Where two headings read alike, the source gives them in different places.

Consider `Cc1cc(C(F)(C(F)(F)F)C(F)(F)F)cc(C)c1-c1ccn(-c2ccc(Cl)c(C(=O)NC3CC3)c2)n1` [I-T2-1, 2-chloro-N-cyclopropyl-5-[3-[2,6-dimethyl-4-[1,2,2,2-tetrafluoro-1-(trifluoromethyl)ethyl]phenyl]pyrazol-1-yl]benzamide], for which the chromatographic logP in data set [1] (reversed-phase HPLC column (C18), HPLC, reversed-phase C18, acetonitrile/water with formic acid, 55° C., read-out: logP) was determined as 4.9; in [1] (reversed-phase HPLC column (C18), HPLC-MS method a); read-out: logP^a)) it was 4.9. Moreover, in the data set on Phaedon cochleariae (Phaedon cochleariae, foliar, 168 h, read-out: efficacy), the pest or weed control at 100 g/ha was 100%.

With `CCc1cc(C(F)(C(F)(F)F)C(F)(F)F)cc(C)c1-n1cc(-c2cnc(Cl)c(C(=O)NC3(C#N)CC3)c2)cn1` [I-T3-110], the efficacy (in the data set with Lucilia cuprina; in the data set with Amblyomma hebraeum; in the data set on Rhipicephalus sanguineus (setting [5]); in [2]; in the data set with Boophilus microplus; in the data set on Ctenocephalides felis [3]) was 100% each time. The efficacy in the data set on Ctenocephalides felis [4] and in the data set with Musca domestica was 100% throughout. Also, the “log P” value in data set [1] is 4.1.

On to `O=C(NC1CC1)c1cc(-c2cnn(-c3c(Cl)cc(C(F)(C(F)(F)F)C(F)(F)F)cc3C(F)(F)F)c2)cnc1Cl` [I-T3-112], for which the efficacy (in the data set with Lucilia cuprina; with Amblyomma hebraeum; in the data set with Rhipicephalus sanguineus (setting [5]); in data set [2]; in the data set with Boophilus microplus; in the data set on Ctenocephalides felis [3]) was 100% in each case. Also, the efficacy in the data set with Ctenocephalides felis [4] and in the data set with Musca domestica was 100% each time. The lipophilicity (log P) in [1] is 4.0.

In the case of `N#CC1(NC(=O)c2cc(-c3cnn(-c4c(Cl)cc(C(F)(C(F)(F)F)C(F)(F)F)cc4C(F)(F)F)c3)cnc2Cl)CC1` [I-T3-114], the efficacy (with Lucilia cuprina; with Amblyomma hebraeum; in the data set with Rhipicephalus sanguineus (setting [6]); in [2]; in the data set on Boophilus microplus; in the data set with Ctenocephalides felis [3]) was 100% in each case. The efficacy with Ctenocephalides felis [4] and with Musca domestica was 100% in each case. Also, in data set [1], the “log P” value stood at 4.0.

Regarding `Cc1cc(C(F)(C(F)(F)F)C(F)(F)F)cc(C(F)(F)F)c1-n1cc(-c2cnc(C)c(C(=O)NC3CC3)c2)cn1` [I-T3-117], the efficacy (in the data set with Lucilia cuprina; in the data set on Amblyomma hebraeum; in the data set on Rhipicephalus sanguineus (setting [5]); in data set [2]; in the data set on Boophilus microplus; with Ctenocephalides felis [3]) was 100% throughout. For the same compound, the efficacy in the data set with Ctenocephalides felis [4] and in the data set with Musca domestica was 100% throughout. In addition, the “log P” value in data set [1] worked out at 3.5.

`Cc1cc(C(F)(C(F)(F)F)C(F)(F)F)cc(C(F)(F)F)c1-n1cc(-c2cnc(C)c(C(=O)NC3(C#N)CC3)c2)cn1` [I-T3-119]: the efficacy (with Lucilia cuprina; in the data set with Amblyomma hebraeum; with Rhipicephalus sanguineus (setting [5]); in [2]; in the data set with Boophilus microplus; in the data set on Ctenocephalides felis [3]) was 100% in each case. The efficacy in the data set with Ctenocephalides felis [4] and in the data set on Musca domestica was 100% in each case. Further, in data set [1], the “log P” value was 3.6.

On to `Cc1cc(C(F)(C(F)(F)F)C(F)(F)F)cc(C(F)(F)F)c1-n1cc(-c2cnc(C)c(C(=O)N(C)C3(C#N)CC3)c2)cn1` [I-T3-123], for which the efficacy with Lucilia cuprina was 100%; in the data set on Amblyomma hebraeum, 80%; with Rhipicephalus sanguineus (setting [6]) it was 80%; in data set [2] it was 100%; with Boophilus microplus, 100%; in the data set with Ctenocephalides felis [3], 100%. The efficacy in the data set with Ctenocephalides felis [4] and in the data set with Musca domestica was 100% in each case. Moreover, the “log P” value in data set [1] came out at 3.9.

For `Cc1ncc(-c2cnn(-c3c(Cl)cc(C(F)(C(F)(F)F)C(F)(F)F)cc3C(F)(F)F)c2)cc1C(=O)NC1(C#N)CC1` [I-T3-125], the efficacy (in the data set on Lucilia cuprina; in the data set on Amblyomma hebraeum; in the data set with Phaedon cochleariae; in data set [2]; in the data set with Boophilus microplus; in the data set on Ctenocephalides felis [3]) was 100% in each case. Further, the efficacy with Ctenocephalides felis [4] and with Musca domestica was 100% throughout. The “log P” value in data set [1] was found to be 3.8.

With `O=C(NC1CC1)c1cc(-c2cnn(-c3c(Br)cc(C(F)(C(F)(F)F)C(F)(F)F)cc3C(F)(F)F)c2)ccc1Cl` [I-T3-148], the efficacy (in the data set with Lucilia cuprina; in the data set with Amblyomma hebraeum; in the data set on Rhipicephalus sanguineus (setting [5]); in data set [2]; in the data set with Boophilus microplus; in the data set on Ctenocephalides felis [3]) was 100% throughout. In addition, the efficacy in the data set on Ctenocephalides felis [4] and in the data set on Musca domestica was 100% throughout. Further, in [1], the “log P” value is given as 4.5.

For the compound `N#CC1(NC(=O)c2cc(-c3cnn(-c4c(Br)cc(C(F)(C(F)(F)F)C(F)(F)F)cc4C(F)(F)F)c3)ccc2Cl)CC1` [I-T3-155], the efficacy (in the data set with Lucilia cuprina; in the data set on Amblyomma hebraeum; in the data set on Rhipicephalus sanguineus (setting [5]); in [2]; in the data set with Boophilus microplus; with Ctenocephalides felis [3]) was 100% each time. In addition, the efficacy in the data set on Ctenocephalides felis [4] and with Musca domestica was 100% each time. Besides, the “log P” value in data set [1] is 4.4.

On to `O=C(NC1CC1)c1cc(-c2cnn(-c3c(Cl)cc(C(F)(C(F)(F)F)C(F)(F)F)cc3OC(F)(F)F)c2)ccc1Cl` [I-T3-162], for which the efficacy (in the data set on Lucilia cuprina; with Amblyomma hebraeum; in the data set with Rhipicephalus sanguineus (setting [5]); in data set [2]; in the data set on Boophilus microplus; with Ctenocephalides felis [3]) was 100% each time. The efficacy with Ctenocephalides felis [4] and in the data set with Musca domestica was 100% in each case. In data set [1], the log partition coefficient (log P) was determined as 4.6.

`N#CC1(NC(=O)c2cc(-c3cnn(-c4c(Cl)cc(C(F)(C(F)(F)F)C(F)(F)F)cc4OC(F)(F)F)c3)ccc2Cl)CC1` [I-T3-163]: the efficacy (with Lucilia cuprina; with Amblyomma hebraeum; with Rhipicephalus sanguineus (setting [5]); in [2]; in the data set with Boophilus microplus; in the data set on Ctenocephalides felis [3]) was 100% in each case. In addition, the efficacy in the data set on Ctenocephalides felis [4] and in the data set with Musca domestica was 100% each time. Besides, in [1], the “log P” value is reported as 4.5.

`Cc1cc(C(F)(C(F)(F)F)C(F)(F)F)cc(C)c1-c1cc(-c2ccc(Cl)c(C(=O)NC3(C#N)CC3)c2)on1` [I-T22-2]: the efficacy (in the data set on Lucilia cuprina; in the data set with Amblyomma hebraeum; with Rhipicephalus sanguineus (setting [5]); in data set [2]; in the data set with Boophilus microplus; in the data set on Ctenocephalides felis [3]) was 100% throughout. The efficacy in the data set with Ctenocephalides felis [4] and in the data set on Musca domestica was 100% throughout. Besides, in data set [1] (HPLC, reversed-phase C18, acetonitrile/water with formic acid, 55° C.), the logP was 4.6.

As usually defined, the log P is the decadic logarithm of the partition coefficient of the neutral form, usually between octanol and water. Read a low log P as lower lipophilicity. What is called logP is a log measure of how a compound divides between an organic and an aqueous phase. A low value points to lower lipophilicity.
